For data set [1], the system named is human aortic smooth muscle cells (HASMC). As to the kind of experiment: PG subtype secretion by EIA in HASMC. The class given is cell-based. The note with it: 10 nM, 1 μM BK set as 100%.
Data set [2] is described as follows: Transdermal experiment, modified Franz diffusion pool with HPLC. The data set is classed as in vitro ADME, mice. As for the experimental part:
To explore the optimized dosage form and preparation technology of BK B2 receptor agonist, we selected YLB-01, which has the long-term stability for preservation, as a sample from three agonists (YLB-01, YLB-02, YLB-03) and prepared three kinds of dosage form, analyzed by transdermal experiments and high-performance liquid phase (HPLC) content analysis. Three dosage forms (liniments, gels and ointments) of […] were prepared in different concentrations (0.03%, 0.3% and 3%). Then, different proportional of transdermal promoters was added to perform transdermal experiments. The transdermal effects of three kinds of YLB-01 formulation were evaluated by the modified Franz diffusion pool. Cumulative transmittance of liniments, gels and ointments in 0.3% concentration of YLB-01 for 9 hours was measured respectively. Results: (1) The best transdermal promoter ratio of liniments, gels and ointments were 2% propylene glycol+2% azone, 4% propylene glycol, and 5% propylene glycol+2% azone. (2) 9 hours of cumulative transmittance of 0.03%, 0.3%, 3% liniments were 4.23%, 10.96% and 12.17%, respectively; 9 hours of cumulative transmittance of 0.03%, 0.3%, 3% gels were 2.29%, 4.43% and 13.57%, respectively; 9 hours of cumulative transmittance of 0.03%, 0.3%, 3% ointments were 2.08%, 1.12% and 0.73%, respectively. Conclusion: The different contents of […] liniments, gels and ointments are all have some transdermal abilities, and the abilities are: liniments>gels>ointments.
To determine the optimal dosage form of YLB-01 and best transdermal promoter, we plan to use transdermal test combined with HPLC content analysis as screening basis, research on dosage forms and transdermal promoter to achieve a stable and reliable preparation. The samples were analyzed by HPLC on an Agilent TC-C18 column (150 mm×4.6 mm, 5 microns). The mobile phases were methanol and 0.02 mol/L potassium dihydrogen phosphate buffer (66:34, pH was adjusted to 4 with phosphoric acid). Flow rate: 1 ml/min; Column temperature: 30° C. Excitation wavelength and fluorescent wavelength of fluorescence detection were 267 nm and 380 nm, respectively. Under this condition, YLB-01 retention time was 3.898 min, target compounds peak shape is good which could be effectively separated, and no impurity peak, baseline is smooth (shown as FIG. 6).
The abdominal hair of mice was removed. The mice were sacrificed by spinal dislocation. The subcutaneous fat was removed, and the depilous skin of abdomen was reserved in 4° C. physiological saline. Skin was fixed between the supply room and reception room facing the supply room. The effective permeability area was 4 cm^2. Receiving liquid was physiological saline, and receiving chamber volume V were 25 ml. 1.0 g of the tested sample was coated evenly on the effective skin surface with the electromagnetic stirrer run at a speed of 300 r/min. To take out the receiving liquid in 1, 2, 3, 4, 5, 6, 7, 8, 9 h, 0.5 ml/h (Complementing the same quantity each time), the samples were centrifuged and the supernatant was took for HPLC analysis.
After the detection, the cumulative transmittance P (%) was calculated:
V: the volume of receiving liquid in receiving room; Ci: drug concentration in receiving liquid between the time to last time of the i time; Cn: drug concentration in the receiving liquid when the n time taking the sample; M: drug content in the sample.

Data set [3] relates to human primary vein endothelial cells (HPVEC). As to the kind of experiment: PG subtype secretion by EIA in HPVEC. The class given is cell-based. Particulars: 10 nM, 1 μM BK set as 100%. As for the experimental part: In order to study of prostaglandin subtypes secretion triggered by activation of B2 receptor by these three compounds, human primary vein endothelial cells (HPVEC) and human aortic smooth muscle cells (HASMC) were used for PG secretion, following the same protocol above; 10 nM of these compounds, YLB-1, YLB-2, YLB-3 was added. […] These percentage values above were all calibrated with respect to bradykinin.

A further data set concerns human lower leg hair. As to the kind of experiment: Hair growth after topical 0.3% suspension on human lower leg. The data set is classed as in vivo. Particulars: twice a day. The source says: The B2 receptor agonist (YLB-01) suspension with 0.3% concentration was obtained for clinical use as described above. The suspension was applied to human lower leg twice a day, for 3 months; hair growth was observed. The treated areas were observed daily to monitor hair growth and side effects, e.g. swelling, pruritus, pain, etc. And the treated parts were photographed weekly.
The B2 receptor agonist (YLB-01) suspension with 0.3% concentration was obtained for clinical use as described above and was applied to human lower leg twice a day, for 3 months; hair growth was observed. The treated areas were observed daily to monitor hair growth and side effects, e.g. swelling, pruritus, pain, etc. And the treated parts were photographed weekly.

As to `CNC(=O)c1ccc(CCC(=O)NCC(=O)N(C)c2ccc(Cl)c(COc3cccc4c3nc(OC)n4Cc3ccccn3)c2Cl)cc1` [YLB-01, 4-(3-2-((2,4-dichloro-3-((2-methoxy-1-(pyridine-2ylmethyl)-1H-benzo[d]imidazol-4-yloxy)methyl)phenyl)(methyl)amino-2-oxoethylamino)-3-oxopropyl)-N-methylbenzamid], the PGD2 result in data set [1] and in data set [3] was “undetectable” in each case. Also, the PGE2 is 34.64 ± 12.27% in data set [1] and 30.24 ± 5.40% in data set [3]. Moreover, the PGF-2a in data set [1] is on record as 5.68 ± 2.08%; in data set [3], 6.29 ± 1.01%. The “Cumulative Penetration Rate of 9 Hours” value in data set [2] (gels, 0.03% YLB-01, 4% propylene glycol, 0% azone) is 2.29%; in data set [2] (gels, 0.3% YLB-01, 4% propylene glycol, 0% azone), 4.43%; in data set [2] (gels, 3% YLB-01, 4% propylene glycol, 0% azone), 13.57%; in data set [2] (liniments, 0.03% YLB-01, 2% propylene glycol + 2% azone), 4.23%; in data set [2] (liniments, 0.3% YLB-01, 2% propylene glycol + 2% azone), 10.96%; in data set [2] (liniments, 3% YLB-01, 2% propylene glycol + 2% azone), 12.17%. In addition, the “Cumulative Penetration Rate of 9 Hours” value in data set [2] (ointments, 0.03% YLB-01, 5% propylene glycol + 2% azone) is 2.08%; in data set [2] (ointments, 0.3% YLB-01, 5% propylene glycol + 2% azone) it was 1.12%; in data set [2] (ointments, 3% YLB-01, 5% propylene glycol + 2% azone) it was 0.73%. The hair growth was determined as 0 mm in the data set on human lower leg hair (0 week), 4.89 ± 0.38 mm in the data set on human lower leg hair (2 weeks), 6.82 ± 0.4 mm in the data set with human lower leg hair (3 weeks) and 9.61 ± 0.55 mm in the data set with human lower leg hair (4 weeks). Moreover, in the data set with human lower leg hair (3 months), the “hair growth compared with control group (photos, FIG. 2)” value is recorded as “hairs grew more quickly than those in control group”. Besides, in the data set with human lower leg hair (3 months), the “new hair growth in parts used to be bald (photos, FIG. 1)” value is reported as “tiny new hairs grew out”.

For the origin of these results see patent US20160220464A1 (WUHAN OPTICS VALLEY BRIDGEBIOMED INTERNATIONAL CORPORATION, priority 2013, published 2016).
